Source: patent publication US20260256870A1, “SKIN COMPOSITION” (Eaderm Co., Ltd., priority 2019, published 2026)
“Also recorded” adds a separate entry of the source. Structures can show the parent of a compound that is named as a salt.

What was measured:
COL17A1 [1] = test: COL17A1 expression in human epidermal keratinocytes by high content imaging (HCS); format: cell-based; details: for COL17A1 expression level (control ratio): human epidermal keratinocytes, 48 hours after addition of reagents
Procedure: The present inventors further searched for substances that induce or maintain the expression of COL17A1. Human epidermal keratinocytes were seeded in 384-well plates, cultured for 48 hours after addition of reagents, immunostained with an anti-COL17A1 antibody and a fluorescently labeled secondary antibody, and then the fluorescence intensity per cell was detected using a high content imaging system (HCS: High Content Screening). In addition to cell counting with DAPI, the expression level of COL17A1 was quantified.

[2] = system: human epidermal keratinocytes; test: Colony formation assay using human epidermal keratinocytes; format: cell-based
From the text: To test whether COL17A1-mediated SCD maintains clonal proliferation of epidermal stem cell clones, the present inventors used a colony formation assay, which is an in vitro assay said to be the gold standard for assessing the self-renewal ability of epidermal stem cells, including cells in the tail epidermis.

[3] = system: full thickness wounds in the skin of rodent tails; test: Full thickness wound healing in tail skin; format: in vivo, mice; details: day 0, day 14, day 21 (FIG. 12)
Procedure: To test the above hypothesis, the present inventors performed a full-layer wound healing experiment using the tail skin of aged wild-type mice. […] Forced expression of hCOL17A1 by basal layer keratinocytes in mice also promoted wound healing (FIG. 12). […] To confirm the beneficial effects in vivo, these drugs were administered to full thickness wounds in the skin of rodent tails.

UVB-irradiated back skin = test: Barrier function after UVB irradiation (Example 12); format: in vivo, Hairless mice HOS: HR-1; details: for water content of the stratum corneum after ultraviolet irradiation: UVB 150 mJ/cm^2, fourth day (FIG. 21)
Procedure: Hairless mice HOS: HR-1 females (7 weeks old) were acclimatized to the experimental environment and then grouped into the 6 groups below, so that the body weight values were nearly uniform. • No ultraviolet irradiation group (n=2) • Ultraviolet (UVB) irradiation+solvent application group (n=4). • Ultraviolet (UVB) irradiation+200 nM apocynin application group (n=4). • Ultraviolet (UVB) irradiation+200 μM apocynin application group (n=4). • Ultraviolet (UVB) irradiation+2 μM Y-27632 application group (n=4). • Ultraviolet (UVB) irradiation+20 μM Y-27632 application group (n=4) In the above solution application group, aqueous solutions of each preparation were applied to hairless mice on their back once a day for five days, starting from the day before ultraviolet irradiation. UVB irradiation was carried out using a Yayoi ultraviolet irradiation system (Y-UV-Lab-K-D5 lamp type) at an intensity of 150 mJ/cm^2 once a day. The stratum corneum water content and TEWL of the irradiated area were measured for each group of mice on the fourth day after the start of ultraviolet irradiation. The measurements were performed using Corneometer CM825 and Tewameter TN300 (Courage+Khazaka, Integral Corporation, Germany) at specific sites on the back of the mice.

COL17A1 [4] = test: Stabilization of COL17A1 against UV-induced repression
[5] = system: skin damage induced by anticancer drugs; test: TEWL after EGF receptor inhibitor administration (Example 9); details: control mice about 18 months old, 50 mg/kg/day intraperitoneal, day 7 (FIG. 18)
From the text: A 0.5% methylcellulose solution of the solvent was similarly administered to the control non-treated group. […] Measurements were taken at specific sites on the back of the mice (two sites symmetrically located on the left side and right side from the center of the spine) using Tewameter TN300 (Courage+Khazaka, Integral Corporation, Germany).

[6] = system: skin damage induced by erlotinib; test: Improvement of skin damage caused by erlotinib administration, TEWL (Example 10); format: in vivo, C57BL6N mice; details: erlotinib 50 mg/kg/day intraperitoneal, 7 weeks old or 6 months old mice (FIG. 19)
Procedure: Female […] mice (7 weeks old or 6 months old) were acclimatized to the experimental environment, and then hair was removed from their back under anesthesia. […] The control non-administered group received the 0.5% methylcellulose solution of the solvent in the same way. The control group applied with the solvent and the group applied with 200 μM apocynin received an aqueous solution of each preparation once a day, five times a week on the back. To the control solvent application group the solvent (50% ethanol/PBS) of apocynin was similarly applied.

back skin = test: Skin elasticity and TEWL after long-term application (Example 14); format: in vivo, hairless mice (HOS: HR-1); details: three times a week for seven weeks, day 53; retinol 0.1%, apocynin 200 μM (FIG. 23)
Procedure: TEWL measurements and skin elasticity measurements were performed on the back of each group (at two sites on the left side and right side symmetrically from the center of the spine) 7 weeks after the start of application (day 53). TEWL measurements were performed at specific sites on the back of mice (two sites on the left side and right side symmetrically from the center of the spine). The elasticity of the skin was measured using Cutometer MPA580 (Courage+Khazaka, Integral Corporation, Germany) (parameter settings: 300 mba, 2 sec ON time, 2 sec OFF time), and the average value of the three measurements was used for analysis. By suctioning the skin on the back of the mouse for 2 seconds and then releasing the suction 2 seconds later, the length of the skin stretched was measured at each time point immediately after suctioning, immediately before suction release, and immediately after suction release; and they are return of the skin at the time of suction release (Ua: unit mm), rapid stretching in the initial stage of suctioning (Ue: unit mm), maximum degree of skin stretch just before suction release (Uf: unit mm), and the amount of rapid recovery immediately after suction release (Ur: unit mm). R5-Ur/Ue was set as the index of net elasticity, and R7=Ur/Uf as the index of elasticity. R2=Ua/Uf was set as the index of gross elasticity.

[7] = system: UV-induced wrinkles of back skin; test: Wrinkle improvement after UV irradiation (Example 15); format: in vivo, Hairless mice HOS: HR-1; details: UVA+UVB, retinol 0.1%, apocynin 200 μM, long-term application (FIG. 25)
From the text: In a mouse model in which wrinkle formation was induced by long-term exposure to ultraviolet (UVA) light, the present inventors examined the effect of substances that promote the self-renewal ability of epidermal stem cells on the improvement of wrinkles.
Hairless mice HOS: HR-1 females (7 weeks old) were acclimated to the experimental environment and then grouped into the […] groups below, so that their body weight values would be nearly uniform. • No UV irradiation group (n=2). • UV (UVA+UVB) irradiation+solvent application group (n=4) • Ultraviolet (UVA+UVB) irradiation+200 μM apocynin application group (n=4). • UV (UVA+UVB) irradiation+0.1% retinol application group (n=2) […]
For each group of mice from the first to the fourth week after the start of UV irradiation, the back was photographed with a high-resolution three-dimensional image analyzer PRIMOS-CR (Canfield Scientific, Inc., USA). Based on the images obtained, total wrinkle volume (mm^3) and total wrinkle mean depth (μm) were measured with the Primos OMC3_22 software. Skin flexibility was measured using Cutometer MPA580 (Courage+Khazaka, Integral Corporation, Germany), and the value of RO was used as skin flexibility.

COL17A1 [8] = details: HaCaT cells, 24 hours after hydrogen peroxide treatment (FIG. 17)
Procedure: The anticancer agent hydroxyurea was administered to 7-week-old C57BL6 mice three times a month, and the tissues were collected three months later for immunostaining using an antibody for COL17A1. […] In addition, HaCaT cells, which are human epidermal keratinocytes, were irradiated with radiation (20 Gy, 30 Gy) and UV light (20 mJ, 30 mJ) and the cells were collected after 24 and 72 hours, respectively, and Western blotting was performed using an antibody against COL17A1.

[9] = Table 1, fluorescence intensity per cell

**Q.** How did the “COL17A1 expression level (control ratio)” value (COL17A1 [1]; [9]) turn out when C[C@@H](N)[C@H]1CC[C@H](C(=O)Nc2ccncc2)CC1 [Y-27632] was run?
**A.** The value was “⊚⊚ (two double circles (⊚⊚) in the COL17A1 expression level (control ratio) represent a 2.0-fold or greater increase in the expression level)”.

**Q.** What about the “COL17A1 expression / amount of COL17A1 in cultured keratinocytes compared to the control” value (COL17A1 [1]; in vitro, HCS (FIG. 15)) of the same molecule?
**A.** The value was “maintain or induce the COL17A1 expression; also recorded: induce the COL17A1 expression”.

**Q.** And the “Colony area (control ratio)” value ([2]; Table 1)?
**A.** The value was “⊚ (one double circle (⊚) indicates maintenance of 1.0-1.2-fold)”.

**Q.** And the “Colony number (control ratio)” value ([2]; Table 1)?
**A.** Its value is “⊚ (one double circle (⊚) indicates maintenance of 1.0-1.2-fold)”.

**Q.** And the number of colonies ([2]; compared to the control, n=3 wells (FIG. 13, FIG. 16))?
**A.** The number of colonies was “significantly increased”.

**Q.** And the “average size of the top five colonies” value ([2]; compared to the control, n=3 wells (FIG. 14))?
**A.** The value was “significantly increased”.

**Q.** And the colony size ([2]; human epidermal keratinocytes)?
**A.** Its colony size is “significantly increased”.

**Q.** What about the “number of colonies with a diameter greater than 2 mm” value ([2]; n=3 wells (FIG. 13 right)) of the same molecule?
**A.** Its value is “significantly increased”.

**Q.** And the “wound repair (unrepaired wound area)” value [3]?
**A.** The value was “significantly accelerated”.

**Q.** And the “wound repair (unrepaired wound area)” value ([3]; listed as Y27632)?
**A.** The value was “significantly promote the wound repair process”.

**Q.** What about the “water content of the stratum corneum after ultraviolet irradiation” value (UVB-irradiated back skin; 2 μM applied) of the same molecule?
**A.** The value was “significantly higher”.

**Q.** What about the “TEWL after ultraviolet irradiation” value (UVB-irradiated back skin; 20 μM administration group, UVB, fourth day (FIG. 21)) of the same molecule?
**A.** The value was “significantly lower”.

**Q.** What about the “water content of the stratum corneum after ultraviolet irradiation” value (UVB-irradiated back skin; 20 μM applied) of the same molecule?
**A.** Its value is “significantly higher”.

**Q.** How did the “COL17A1 stability / UV-induced downward repression of COL17A1” value (COL17A1 [4]) turn out when CNC(=O)[C@@H](NC(=O)[C@H](CC(C)C)[C@H](O)C(=O)NO)C(C)(C)C [Marimastat] was run?
**A.** The value was “stabilizes COL17A1 and blocks the UV-induced downward repression of COL17A1”.

**Q.** Which TEWL [5] does the source give for C#Cc1cccc(Nc2ncnc3cc(OCCOC)c(OCCOC)cc23)c1 [Erlotinib] here?
**A.** Its TEWL is “significantly increased”.

**Q.** What about the TEWL [6] of the same molecule?
**A.** Its TEWL is “significantly increased”.

**Q.** With CC1=C(/C=C/C(C)=C/C=C/C(C)=C/CO)C(C)(C)CCC1 [Retinol] as the molecule, how does the “TEWL after long-term continuous application” value (back skin) read?
**A.** Its value is “significantly increased”.

**Q.** And the TEWL [7]?
**A.** Its TEWL is “significantly increased”.

**Q.** What about the TEWL ([7]; listed as retinol) of the same molecule?
**A.** Its TEWL is “marked increase”.

**Q.** Which “COL17A1 expression level (control ratio)” value (COL17A1 [1]; Table 2) does the source give for Helenin here?
**A.** The value was “⊚⊚ (two double circles (⊚⊚) in the COL17A1 expression level (control ratio) represent a 2.0-fold or greater increase in the expression level)”.

**Q.** What about the “Colony area (control ratio)” value ([2]; Table 2) of the same molecule?
**A.** Its value is “⊚ (one double circle (⊚) indicates maintenance of 1.0-1.2-fold)”.

**Q.** And the “Colony number (control ratio)” value ([2]; Table 2)?
**A.** Its value is “⊚ (one double circle (⊚) indicates maintenance of 1.0-1.2-fold)”.

**Q.** For C[C@H]1CNCCCN1S(=O)(=O)c1cccc2cncc(F)c12 [Ripasudil], which “COL17A1 expression level (control ratio)” value (COL17A1 [1]; [9]) is on record?
**A.** Its value is “⊚⊚ (two double circles (⊚⊚) in the COL17A1 expression level (control ratio) represent a 2.0-fold or greater increase in the expression level)”.

**Q.** What about the “Colony area (control ratio)” value ([2]; Table 1) of the same molecule?
**A.** The value was “⊚ (one double circle (⊚) indicates maintenance of 1.0-1.2-fold)”.

**Q.** And the “Colony number (control ratio)” value ([2]; Table 1)?
**A.** Its value is “⊚ (one double circle (⊚) indicates maintenance of 1.0-1.2-fold)”.

**Q.** Which “COL17A1 expression level (control ratio)” value (COL17A1 [1]; [9]) does the source give for CCCCc1oc2ccccc2c1C(=O)c1cc(I)c(OCCN(CC)CC)c(I)c1 [Amiodarone Hydrochloride] here?
**A.** Its value is “⊚⊚ (two double circles (⊚⊚) in the COL17A1 expression level (control ratio) represent a 2.0-fold or greater increase in the expression level)”.

**Q.** What about the “Colony area (control ratio)” value ([2]; Table 1) of the same molecule?
**A.** Its value is “○”.

**Q.** And the “Colony number (control ratio)” value ([2]; Table 1)?
**A.** The value was “⊚ (one double circle (⊚) indicates maintenance of 1.0-1.2-fold)”.

**Q.** CC(CCc1ccc(O)cc1)NCCc1ccc(O)c(O)c1 (centres unmarked) [Dobutamine Hydrochloride] was tested. Which “COL17A1 expression level (control ratio)” value (COL17A1 [1]; [9]) did it give?
**A.** Its value is “⊚⊚ (two double circles (⊚⊚) in the COL17A1 expression level (control ratio) represent a 2.0-fold or greater increase in the expression level)”.

**Q.** What about the “Colony area (control ratio)” value ([2]; Table 1) of the same molecule?
**A.** The value was “⊚ (one double circle (⊚) indicates maintenance of 1.0-1.2-fold)”.

**Q.** What about the “Colony number (control ratio)” value ([2]; Table 1) of the same molecule?
**A.** Its value is “⊚ (one double circle (⊚) indicates maintenance of 1.0-1.2-fold)”.

**Q.** Which “expression of COL17A1 (Western blot)” value (COL17A1 [8]) does the source give for OO [hydrogen peroxide] here?
**A.** Its value is “marked decrease”.
